# Results taken from US7863310B2, “Kinase inhibitors” (Eli Lilly and Company, priority 2004, dated 2011).
# Key:
# [1] = system: TNF-α; assay: Effect on intra-articular LPS induced TNF-α in rat ankles; format: in vivo; conditions: female Lewis rats
# Method: Intra-articular injection of LPS into rat ankles induces the synthesis of TNF-α, which can be measured in synovial lavage fluid. High levels of TNF-α are detectable within 2 hours. Since the joint is the site where arthritis develops, this model can rapidly determine whether an orally administered compound has an effect on an inflammatory response in the synovium.
# Six female Lewis rats (150-200 g) are place in each treatment group. The animals are given vehicle (1% NaCarboxymethylcellulose-0.25% Tween 80) or Example 6 (1 mg/kg, 3 mg/kg, 10 mg/kg, and 30 mg/kg) orally. One hour later, 10 μl LPS (10 μg) is administered intra-articularly into the right ankle of each rat, while the left ankle receives 10 μL of saline. After two hours, each ankle is lavaged with 100 μL of saline. The lavage is collected and stored at −80° C. • Group#1: Vehicle (1% NaCMC-0.25% Tween 80, 1 mL, PO) • Group#2: Example 6 (free base) (1 mg/kg, 1 mL, PO) • Group#3: Example 6 (free base) (3 mg/kg, 1 mL, PO) • Group#4: Example 6 (free base) (10 mg/kg, 1 mL, PO) • Group#5: Example 6 (free base) (30 mg/kg, 1 mL, PO)
# TNF-α was measured with a commercially available ELISA kit (R&D, RTA00). […] The TMED50=3 mg/kg for the compound of Example 6 in this assay.
# [2] = system: Female Lewis rats, collagen induced arthritis; assay: Rat Collagen Induced Arthritis Efficacy Model; format: in vivo; conditions: 30 mg/kg bid, PO, 14 days
# Method: Female Lewis rats ((≅190 gm, Charles River Labs) are immunized with Bovine type II collagen (2 mg/ml) emulsified with an equal volume of adjuvant (aluminum hydroxide). […]. The rats are immunized with approximately […] of the emulsion intradermally on the back neat the base of the tail. All animals are re-immunized 7 days later according to the same protocol. The rats begin to develop arthritis (characterized by swell-ling and redness of one or both ankles) from 12 to 14 days after the first immunization. The rats are equally distributed into five treatment groups at the first signs of arthritis and treatment is initiated with each rat dosed bid for 14 days.
# Ankle diameter is measured with calipers 5 days a week and recorded. Data is expressed as the area under the curve (AUC) generated from the composite inflammation scores and statistical analysis performed.
SMILES,"TMED50 ([1]; oral, intra-articular LPS induced TNF-α in synovial lavage fluid) [mg/kg]","reduced inflammation (AUC of composite inflammation scores, ankle diameter) [2] [%]","inhibition of TNF-α synthesis, as measured in the synovial lavage fluid ([1]; oral 1, 3, 10, 30 mg/kg, intra-articular LPS 10 μg one hour later, lavage after two hours, ELISA)"
"CC(C)Cn1c(N)nc2ccc(-c3[nH]c(-c4c(F)cccc4F)nc3-c3ccccc3)cc21 [Example 6, 1-(Isobutyl)-2-amino-6-(2-(2,6-difluorophenyl)-4-phenyl-1H-imidazol-5-yl)-1H-benzimidazole]",3,30,
"CS(=O)(=O)O.C[C@@H](n1c(N)nc2ccc(-c3[nH]c(-c4c(F)cccc4F)nc3-c3ccccc3)cc21)C(C)(C)C [Example 78, 6-[2-(2,6-Difluorophenyl)-5-phenyl-3H-imidazol-4-yl]-1-(1-(R)-methyl-2,2-dimethylpropyl)-1H-benzimidazol-2-ylamine methanesulfonate]",,,dose-dependent inhibition
